Source: article PMC5974752, “Bax/Tubulin/Epithelial-Mesenchymal Pathways Determine the Efficacy of Silybin Analog HM015k in Colorectal Cancer Cell Growth and Metastasis” (Frontiers in Pharmacology, 2018)

How the values were obtained:
HCT116 [1] = test: MTT assay; assay type: cell-based, human; conditions: for IC50: Homo sapiens, HCT-116, MTT, 72 h incubation, mean ± SD of three experiments, read-out: IC50 ± SD, Colon HCT116
Experimental: (§1) The 3-(4,5-dimethylthiazol-2-yl)-2,5-diphenyltetrazolium bromide (MTT) assay was used to determine the sensitivity of the different CRC cells to the novel silybin derivatives (Hussein et al., [2017]; Manivannan et al., [2017]). The cells were seeded at a density of 4,000–5,000 cells/well in 96 well plates and incubated with serial dilutions of the compounds (0, 0.1, 0.3, 1, 3, 10, 30, and 100 μM). The MTT dye (4 mg/ml) was added after 72 h of incubation and incubated with the cells for an additional 4 h at 37°C. Following incubation, the media was discarded and the formazan crystals were dissolved by adding 100 μL of DMSO to each well. A DTX 880 multimode detector (Beckman Coulter Life, Indianapolis IN, USA) was used to determine the absorbance readings at a wavelength of 570 nm. The IC50 values were determined based on 3 separate experiments, with each experiment done in triplicate. The selectivity of the compounds was determined by comparing their cytotoxicity for CRC to normal epithelial cell lines (CHO, and CRL1459).

LOVO = test: MTT assay; assay type: cell-based; conditions: Homo sapiens, 72 h incubation, mean ± SD of three experiments, read-out: IC50 ± SD, Colon LOVO
Experimental: as §1

S1 = test: MTT assay; assay type: cell-based; conditions: Homo sapiens, 72 h incubation, mean ± SD of three experiments, read-out: IC50 ± SD, Colon S1
Experimental: as §1

CRL-1459 = test: MTT assay, normal cell line; assay type: cell-based; conditions: 72 h incubation, mean ± SD of three experiments
Experimental: as §1

CHO = test: MTT assay, normal cell line; assay type: cell-based, Chinese hamster; conditions: Cricetulus griseus, 72 h incubation, mean ± SD of three experiments
Experimental: as §1

[2] = tested on: CRC cell lines (HCT116, LOVO, and S1); test: MTT assay, CRC cell lines together; assay type: cell-based, human
Experimental: as §1

HCT116 cells [3] = test: CellTiter-Glo luminescent assay (ATP content); assay type: cell-based; conditions: Homo sapiens, HCT-116, data not shown, read-out: IC50, ATP depletion
Experimental: Subsequently, we conducted experiments to determine if compound 15k produced a time-dependent effect on cell death. […] The HCT116 cells had intense fluorescence over time compared to the cells incubated with vehicle, with a significant difference in the number of dead cells after 24 h of incubation with 2 μM of 15k. […] The cytotoxicity of 15k and 15j in HCT116 cells were further determined using a more homogeneous CellTiter-Glo® luminescent cell based assay that measures the ATP content in the metabolically active cells.

HCT116 cells [4] = test: Colony formation assay; assay type: cell-based, human; conditions: 2 and 4 μM, 12 h incubation, colonies 10–14 days, vs vehicle control
Experimental: In this assay, HCT116 cells were seeded in 6 well plates at a density of 250,000 cells/plate and allowed to grow overnight. Compounds 15j and 15k (0, 2 or 4 μM) were added the following day. After 12 h of incubation, the medium was discarded and cells were trypsinized with 0.25% trypsin, 2.21 mM EDTA, 1X, harvested, counted and reseeded in 6 well plates at a low density (500 cell/well). The cells were allowed to form colonies for 10–14 days at 37°C, with the medium being changed every other day. Subsequently, methanol was used to fix the colonies formed in each plate, followed by dyeing the colonies with 0.1% crystal violet dye for 30 min. Finally, colonies were viewed and counted under an EVOS microscope (Themo Fisher Scientific, Wayne, MI, USA). The colony formation rate equation was applied for each compound: Colony formation rate = number of colonies/number of seeded cells × 100 %.

HCT116 [5] = test: Cell cycle analysis (PI, flow cytometry); assay type: cell-based, human; conditions: 0, 2 or 4 μM, 12 h, data not shown
Experimental: Cell cycle analysis was performed as described previously (Pozarowski and Darzynkiewicz, [2004]). Briefly, a 6 well plate was used for the seeding of HCT116 at 1 × 10^6 cells/well. The next day, 15j and 15k (0, 2, or 4 μM) were added and incubated with the seeded cells. After 12 h, the cells were trypsinzed with 0.25% trypsin, 2.21 mM EDTA, 1X, washed, counted and resuspended in 0.5 ml of ice cold PBS. PI stain was added to each suspension for at least 15 min to stain the DNA. The cell cycle analysis and cell distribution for each phase was measured using a BD Accuri™ C6 flow cytometer (BD Biosciences, Becton-Dickinson, San Jose, CA, USA) and analyzed using FCS express 5 plus De Novo software (Glendale, CA, USA).

HCT116 cells [6] = test: MitoTracker Red / Alexa Fluor 488 annexin V flow cytometry; assay type: cell-based, human; conditions: 2 or 4 μM, p < 0.001 vs control, data not shown
Experimental: The mitochondrial membrane potential and the induction of apoptosis were analyzed in HCT116 cells using the MitoTracker Red and Alexa Fluor 488 annexin V kits for flow cytometry as previously described (Karthikeyan et al., [2015]). Six well plates were used for seeding of cells, followed by incubation with 15j or 15k (0, 1, 2, and 4μM) for overnight. Subsequently, the cells were harvested, counted and 4 μl of a 10μM working solution of MitoTracker Red was added to each 1 ml cell suspension, followed by 30 min of incubation at 37°C with 5% CO2. The cells were resuspended in 100 μl of annexin binding buffer and 5 μl of Alexa Fluor 488 annexin V was added to the suspension and incubated for 15 min. Finally, 400 μl of annexin-binding buffer was added and the stained cells were detected by flow cytometry. The fluorescence emission at 530 and 585 nm was measured using a BD Accuri™ C6 flow cytometer and analyzed using FCS express 5 plus De Novo software.

LOVO cells [7] = test: Wound healing assay; assay type: cell-based, human; conditions: 2 and 4 μM, 24 h and 48 h, vs vehicle
Experimental: In brief, the metastatic CRC cells (LOVO) were seeded in 6 well plates and allowed to grow as a monolayer until they reached 100% confluence. Upon confluence, 200 μl sterile tips were used to create a wound by gentle scratching of the complete cell monolayer. Sterile PBS was used to wash the cells several times to remove any floating cells. Different concentrations of the test compound were prepared in the culture media and added immediately after wound formation. The closure of the wound was observed by taking pictures at different time points by an EVOS microscope. Finally, the area of the wounds at different time points was calculated using Image J software (NIH, Bethesda, Maryland, USA).

LOVO cells [8] = test: Transwell migration assay; assay type: cell-based, human; conditions: 2 and 4 μM, 24 h, vs vehicle
Experimental: (§2) The effect of compound 15k on the invasiveness of LOVO was tested using 24 trans-well inserts with an […]. The addition of the insert to the well forms two chambers (upper and lower), where the upper chamber was used to grow the cells on the porous membrane. The lower chamber was filled with 600 μl of cell-free DMEM medium. A 200 μl of cell suspension was added to each insert and allowed to attach for 1 h. The test compound was added in different concentrations and incubated with the cells for 24 h. […] Finally, the remaining migrated cells were fixed by methanol and dyed with 0.1% crystal violet dye and observed with an EVOS microscope. The number of migrated cells was counted and compared between the treated and control cells.

COLO 205 cell line = test: Transwell migration assay; assay type: cell-based; conditions: 2 and 4 μM, data not shown
Experimental: as §2
The development of cancer metastasis is dependent on the migration and invasive properties of cancerous cells (van Zijl et al., [2011]). The wound healing and transwell migration assays were used with LOVO cells, as a model for metastatic CRC as it is characterized by a high level of invasiveness (Fan et al., [2015]). The wound healing assay is a well-established method to detect and analyze cell migration potential (Liang et al., [2007]). […] The effect of compound 15k on the invasiveness of COLO 205 cell line was also measured using trans-well migration assay. […] 15j also reversed cell migration and metastasis at different concentrations.

| SMILES | IC50 (HCT116 [1]) [µM] | IC50 (LOVO) [µM] | IC50 (S1) [µM] | IC50 (CRL-1459) [µM] | IC50 (CHO) [µM] | fold more efficacious than compound 15c (HCT116 [1]; from MTT IC50, cell line not given) [fold] | fold more efficacious than compound 15c in LOVO and S1 cells ([2]; from MTT IC50, LOVO and S1) | selectivity, CRC cells compared to normal cells ([2]; MTT, vs CRL1459 and CHO) | IC50 (HCT116 cells [3]) [µM] | colony formation rate (HCT116 cells [4]) | effect on the cell cycle (HCT116 [5]) | mitochondrial membrane potential and apoptosis (HCT116 cells [6]) | cell migration, wound closure (LOVO cells [7]) | number of cells migrated through transwell (LOVO cells [8]) | trans-well migration (COLO 205 cell line) |
| --- | --- | --- | --- | --- | --- | --- | --- | --- | --- | --- | --- | --- | --- | --- | --- |
| O=C(/C=C/c1cccc(OCc2ccccc2)c1)c1ccccc1 [Compound 15a] | 6.4 ± 0.2 | 11.5 ± 0.8 | 2.8 ± 0.5 | 7.8 ± 1 | 22 ± 1.7 | – | – | – | – | – | – | – | – | – | – |
| O=C(/C=C/c1cccc(OCc2ccccc2)c1)c1ccc(Cl)cc1 [Compound 15b] | 12.7 ± 1.4 | 36.5 ± 1.5 | 9.5 ± 1.4 | 12.8 ± 2.1 | 43.6 ± 1.9 | – | – | – | – | – | – | – | – | – | – |
| O=C(/C=C/c1cccc(OCc2ccccc2)c1)c1ccc(Cl)cc1Cl [Compound 15c] | 9 ± 1.1 | 6.7 ± 2.2 | 6.9 ± 1.1 | 7.8 ± 1.1 | 27.5 ± 1.2 | – | – | – | – | – | – | – | – | – | – |
| O=C(/C=C/c1cccc(OCc2ccccc2)c1)c1ccc([N+](=O)[O-])cc1 [Compound 15d] | 22.7 ± 4.2 | 36.3 ± 9.1 | 9 ± 1.2 | 26 ± 1.6 | 82.4 ± 1.7 | – | – | – | – | – | – | – | – | – | – |
| Cc1ccc(C(=O)/C=C/c2cccc(OCc3ccccc3)c2)cc1 [Compound 15e] | 16.5 ± 3.1 | 36.5 ± 1.3 | 22.4 ± 1.9 | 19.8 ± 1.3 | 26.4 ± 0.9 | – | – | – | – | – | – | – | – | – | – |
| COc1ccc(C(=O)/C=C/c2cccc(OCc3ccccc3)c2)cc1 [Compound 15f] | 44.7 ± 3.1 | 11.8 ± 3.5 | 23.4 ± 2.4 | 25.4 ± 1.9 | 22.9 ± 0.3 | – | – | – | – | – | – | – | – | – | – |
| O=C(/C=C/c1cccc(OCc2ccccc2)c1)c1ccc(Cl)c(Cl)c1Cl [Compound 15g] | 0.4 | 2.4 ± 0.4 | 2.3 ± 0.7 | 2.5 ± 0.2 | 8.6 ± 0.9 | 22 | three-fold | – | – | – | – | – | – | – | – |
| O=C(/C=C/c1cccc(OCc2ccccc2)c1)c1ccccc1Br [Compound 15h] | 0.7 ± 0.2 | 1.9 ± 0.3 | 1.9 ± 0.5 | 2.4 ± 0.9 | 9.1 ± 0.2 | – | – | – | – | – | – | – | – | – | – |
| O=C(/C=C/c1cccc(OCc2ccccc2)c1)c1cccc(Br)c1 [Compound 15i] | 1.9 ± 0.1 | 7.5 ± 0.9 | 6.2 ± 1.9 | 7.2 ± 0.9 | 9.2 ± 0.4 | – | – | – | – | – | – | – | – | – | – |
| O=C(/C=C/c1cccc(OCc2ccccc2)c1)c1ccc(Br)cc1 [Compound 15j] | 1 ± 0.2 | 1.8 ± 0.4 | 2.4 ± 0.7 | 5.4 ± 1 | 9 ± 0.5 | – | – | selectively cytotoxic | 0.69 | significantly decreased colony formation rate | significantly increased the level of cells in the sub G1 phase | significant reduction in membrane potential and increase in the number of cells undergoing apoptosis | migrated significantly slower | significantly reduced the trans-well migration | significantly reduced the trans-well migration |
